Results: patent US8153596B2, “Use of SH2 STAT3/STAT1 peptidomimetics as anticancer drugs” (University of South Florida, priority 2006, dated 2012)
“And” between values parts separate entries of the source, which are not always exact repeats. Equal entries are not always repeated. Where two headings read alike, the source gives them in different places.

Legend:
[1] = tested on: v-Src transformed fibroblasts; conditions: constitutively active STAT3-dependant v-Src transformed fibroblasts; cited from earlier work
STAT1:STAT1 = target: T1, STAT1:STAT1 (Homo sapiens, UniProt P42224); assay: EMSA of STAT1:STAT1 dimer DNA binding, nuclear extracts preincubated with peptidomimetic, radiolabeled hSIE probe; type: biochemical
T1 construct: Nuclear extracts containing active STAT1 and STAT3 were preincubated with or without peptidomimetics; endogenous in cells; host or cells: nuclear extracts
T1 sequence (P42224 2-750 limits assumed): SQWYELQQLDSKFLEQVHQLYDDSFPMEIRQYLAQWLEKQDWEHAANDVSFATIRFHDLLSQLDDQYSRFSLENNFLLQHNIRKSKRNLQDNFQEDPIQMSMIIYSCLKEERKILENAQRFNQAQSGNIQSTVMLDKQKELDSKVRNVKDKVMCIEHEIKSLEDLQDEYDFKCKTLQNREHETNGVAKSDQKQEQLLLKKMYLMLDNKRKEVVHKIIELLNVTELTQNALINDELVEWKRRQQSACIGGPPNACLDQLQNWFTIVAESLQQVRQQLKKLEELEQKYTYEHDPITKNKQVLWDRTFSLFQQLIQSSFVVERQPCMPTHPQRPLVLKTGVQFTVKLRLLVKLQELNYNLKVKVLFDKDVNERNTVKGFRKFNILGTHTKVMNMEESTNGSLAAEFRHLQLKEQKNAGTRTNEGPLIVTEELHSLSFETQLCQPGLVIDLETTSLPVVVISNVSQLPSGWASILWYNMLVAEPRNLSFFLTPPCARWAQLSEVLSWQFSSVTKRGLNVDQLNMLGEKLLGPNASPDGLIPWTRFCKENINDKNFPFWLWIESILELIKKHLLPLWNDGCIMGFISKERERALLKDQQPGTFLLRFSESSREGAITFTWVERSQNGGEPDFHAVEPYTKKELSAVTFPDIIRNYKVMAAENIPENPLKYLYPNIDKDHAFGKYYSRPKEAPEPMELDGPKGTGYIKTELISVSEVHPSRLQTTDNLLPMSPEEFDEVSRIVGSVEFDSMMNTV
Description: (§1) Evaluation was carried out through pre-incubation of specific concentrations of peptidomimetics with nuclear extracts containing STAT1 and STAT3 for 30 minutes at room temperature before incubation with radiolabeled hSIE oligonucleotide probes and ESMA analysis. Standard peptide synthetic procedures using HBTU and DIPEA were employed to furnish the library of functionalized inhibitors.
as §1

STAT3:STAT3 = target: T2, STAT3:STAT3 (Homo sapiens, UniProt P40763); assay: EMSA of STAT3:STAT3 dimer DNA binding, nuclear extracts preincubated with peptidomimetic, radiolabeled hSIE probe; type: biochemical
T2 construct: Nuclear extracts containing active STAT1 and STAT3 were preincubated with or without peptidomimetics; endogenous in cells; host or cells: nuclear extracts
T2 sequence (P40763 2-770 limits assumed, species assumed): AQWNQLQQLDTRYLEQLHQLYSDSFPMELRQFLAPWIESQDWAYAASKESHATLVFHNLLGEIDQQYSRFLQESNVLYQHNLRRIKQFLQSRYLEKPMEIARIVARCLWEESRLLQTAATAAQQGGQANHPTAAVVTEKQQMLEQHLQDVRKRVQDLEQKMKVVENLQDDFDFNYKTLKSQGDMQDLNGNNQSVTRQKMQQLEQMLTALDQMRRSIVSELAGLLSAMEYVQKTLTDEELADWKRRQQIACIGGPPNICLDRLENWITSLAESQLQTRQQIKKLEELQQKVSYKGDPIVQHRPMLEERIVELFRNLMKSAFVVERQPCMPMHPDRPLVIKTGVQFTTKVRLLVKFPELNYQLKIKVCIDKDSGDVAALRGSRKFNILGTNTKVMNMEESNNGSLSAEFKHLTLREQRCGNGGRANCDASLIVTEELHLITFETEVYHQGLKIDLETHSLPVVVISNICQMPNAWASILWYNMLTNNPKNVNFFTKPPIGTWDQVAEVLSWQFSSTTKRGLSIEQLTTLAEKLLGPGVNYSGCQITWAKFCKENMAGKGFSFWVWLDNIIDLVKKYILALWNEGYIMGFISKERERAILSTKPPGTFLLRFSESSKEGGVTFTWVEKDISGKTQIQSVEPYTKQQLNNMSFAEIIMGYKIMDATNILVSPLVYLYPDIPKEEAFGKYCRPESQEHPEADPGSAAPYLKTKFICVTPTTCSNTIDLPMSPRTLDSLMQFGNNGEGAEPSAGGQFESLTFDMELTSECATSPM
Description: as §1, §1

CC(C)CC(NC(=O)C(Cc1ccc(OP(=O)(O)O)cc1)NC(=O)c1ccc(C#N)cc1)C(=O)O (stereo not shown) [ISS610]
cell growth suppression [1]: suppress cell growth significantly

CC(C)CC(NC(=O)C(Cc1ccc(OP(=O)(O)O)cc1)NC(=O)c1ccc(C#N)cc1)C(=O)NC(C)C (stereo not shown) [ISS834]
IC50 (STAT1:STAT1): 21 µM
IC50 (STAT3:STAT3): 760 µM

CC(C)CC(NC(=O)C(Cc1ccc(OP(=O)(O)O)cc1)NC(=O)c1ccc(C#N)cc1)C(=O)NC1CCCCC1 (stereo not shown) [ISS836]
IC50 (STAT1:STAT1): 25 µM
IC50 (STAT3:STAT3): 605 µM

COc1cccc(NC(=O)[C@H](CC(C)C)NC(=O)[C@H](Cc2ccc(OP(=O)(O)O)cc2)NC(=O)c2ccc(C#N)cc2)c1 [ISS840]
IC50 (STAT1:STAT1; nuclear extracts preincubated 30 min at room temperature, hSIE probe, EMSA, means of three experiments, read-out: STAT1:STAT1 IC50 values): 1.4 µM and 1 µM
IC50 (STAT3:STAT3; nuclear extracts preincubated 30 min at room temperature, hSIE probe, EMSA, means of three experiments, read-out: STAT3:STAT3 IC50 values): 560 µM
